Laboratory results from patent US10570116B2, “1,4-dicarbonyl-piperidyl derivatives” (Merck Patent GmbH, priority 2015, dated 2020).
Like-named read-outs stand apart in the source and are kept apart here.

Tests used:
Tankyrases = experiment: Measurement of cellular inhibition of Tankyrase (Axin2 level, Luminex based assay, DLD1 cells); type: cell-based; conditions: increase of Axin2 level, 24 hours, read-out: EC50 [M] TNKS cellular assay
TNKS2 = TNKS2 (Homo sapiens (Human), UniProt Q9H2K2); experiment: biochemical; type: biochemical
TNKS1 = TNKS1 (Homo sapiens (Human), UniProt O95271); experiment: biochemical; type: biochemical
[1] = GST-tagged Tnks-2 (873-1166 aa), read-out: IC50 [M] TNKS2 ELISA
[2] = GST-tagged Tnks-1 (1023-1327 aa), read-out: IC50 [M] TNKS1 ELISA

Structure (SMILES) | EC50 (Tankyrases) [M] | IC50 (TNKS2; [1]) [M] | IC50 (TNKS1; [2]) [M] | also measured
CC(C)CC(CC(=O)N1CCC(C(=O)c2cnn(C)c2)CC1)Cc1nc2ccccc2c(=O)[nH]1 (stereo in doubt) [Compound C10, 2-((S)-4-Methyl-2-{2-[4-(1-methyl-1H-pyrazole-4-carbonyl)-piperidin-1-yl]-2-oxo-ethyl}-pentyl)-3H-quinazolin-4-one] | 9e-08 | – | – | –
CC(C)CC(CC(=O)N1CCC(C(=O)c2cnn(C)c2)CC1)Cc1nc2ccccc2c(=O)[nH]1 (stereo in doubt) [Compound C11, 2-((R)-4-Methyl-2-{2-[4-(1-methyl-1H-pyrazole-4-carbonyl)-piperidin-1-yl]-2-oxo-ethyl}-pentyl)-3H-quinazolin-4-one] | 5e-09 | – | – | –
Cn1cc(C(=O)C2CCN(C(=O)CC(C)(C)Cc3nc4ccccc4c(=O)[nH]3)CC2)cn1 [Compound C1, 2-{2,2-Dimethyl-4-[4-(1-methyl-1H-pyrazole-4-carbonyl)-piperidin-1-yl]-4-oxo-butyl}-3H-quinazolin-4-one] | 4.5e-09 | 3.7e-10 | 5.7e-10 | –
C[C@H](CC(=O)N1CCC(C(=O)c2cnn(C)c2)CC1)Cc1nc2ccccc2c(=O)[nH]1 [Compound C2, 2-{(S)-2-Methyl-4-[4-(1-methyl-1H-pyrazole-4-carbonyl)-piperidin-1-yl]-4-oxo-butyl}-3H-quinazolin-4-one] | 4.7e-09 | – | – | –
C[C@@H](CC(=O)N1CCC(C(=O)c2cnn(C)c2)CC1)Cc1nc2ccccc2c(=O)[nH]1 [Compound C3, 2-{(R)-2-Methyl-4-[4-(1-methyl-1H-pyrazole-4-carbonyl)-piperidin-1-yl]-4-oxo-butyl}-3H-quinazolin-4-one] | 3e-08 | – | – | –
CC(C)n1cc(C(=O)C2CCN(C(=O)C[C@@H](C)Cc3nc4ccccc4c(=O)[nH]3)CC2)cn1 [Compound C4, 2-{(S)-4-[4-(1-Isopropyl-1H-pyrazole-4-carbonyl)-piperidin-1-yl]-2-methyl-4-oxo-butyl}-3H-quinazolin-4-one] | 4.7e-09 | – | – | –
CC(C)n1cc(C(=O)C2CCN(C(=O)C[C@H](C)Cc3nc4ccccc4c(=O)[nH]3)CC2)cn1 [Compound C5, 2-{(R)-4-[4-(1-Isopropyl-1H-pyrazole-4-carbonyl)-piperidin-1-yl]-2-methyl-4-oxo-butyl}-3H-quinazolin-4-one] | 3.9e-08 | – | – | –
CC(C)[C@H](CC(=O)N1CCC(C(=O)c2cnn(C)c2)CC1)Cc1nc2ccccc2c(=O)[nH]1 [Compound C8, 2-((S)-3-Methyl-2-{2-[4-(1-methyl-1H-pyrazole-4-carbonyl)-piperidin-1-yl]-2-oxo-ethyl}-butyl)-3H-quinazolin-4-one] | 9.2e-09 | – | – | –
CC(C)[C@@H](CC(=O)N1CCC(C(=O)c2cnn(C)c2)CC1)Cc1nc2ccccc2c(=O)[nH]1 [Compound C9, 2-((R)-3-Methyl-2-{2-[4-(1-methyl-1H-pyrazole-4-carbonyl)-piperidin-1-yl]-2-oxo-ethyl}-butyl)-3H-quinazolin-4-one] | 1.4e-07 | – | – | –
Cn1cc(C(=O)C2CCN(C(=O)CC3(Cc4nc5ccccc5c(=O)[nH]4)CC3)CC2)cn1 [Compound C12, 2-(1-{2-[4-(1-Methyl-1H-pyrazole-4-carbonyl)-piperidin-1-yl]-2-oxo-ethyl}-cyclopropylmethyl)-3H-quinazolin-4-one] | 2.3e-08 | 1e-09 | 2.2e-09 | –
Cn1cc(C(=O)C2CCN(C(=O)C(C)(C)CCc3nc4ccccc4c(=O)[nH]3)CC2)cn1 [Compound C13, 2-{3,3-Dimethyl-4-[4-(1-methyl-1H-pyrazole-4-carbonyl)-piperidin-1-yl]-4-oxo-butyl}-3H-quinazolin-4-one] | 2.3e-06 | 4.2e-07 | 6.1e-07 | –
Cn1cc(C(=O)C2CCN(C(=O)CCC(C)(C)c3nc4ccccc4c(=O)[nH]3)CC2)cn1 [Compound C14, 2-{1,1-Dimethyl-4-[4-(1-methyl-1H-pyrazole-4-carbonyl)-piperidin-1-yl]-4-oxo-butyl}-3H-quinazolin-4-one] | – | 4.4e-08 | 6.3e-08 | –
COc1ccc(C(=O)C2CCN(C(=O)CCC(C)(C)c3nc4ccccc4c(=O)[nH]3)CC2)cc1 [Compound C15, 2-{4-[4-(4-Methoxy-benzoyl)-piperidin-1-yl]-1,1-dimethyl-4-oxo-butyl}-3H-quinazolin-4-one] | 6.2e-08 | 5e-09 | 9.2e-09 | –
Cn1cc(C(=O)C2CCN(C(=O)COCc3nc4c(F)cc(F)cc4c(=O)[nH]3)CC2)cn1 [Compound C27, 6,8-Difluoro-2-{2-[4-(1-methyl-1H-pyrazole-4-carbonyl)-piperidin-1-yl]-2-oxo-ethoxymethyl}-3H-quinazolin-4-one] | – | – | – | IC50 (TNKS2): 1.3e-08 M; IC50 (TNKS1): 2.9e-08 M
COc1ccc(C(=O)C2CCN(C(=O)NCCc3nc4ccccc4c(=O)[nH]3)CC2)cc1 [Compound C29, 4-(4-Methoxy-benzoyl)-piperidine-1-carboxylic acid [2-(4-oxo-3,4-dihydro-quinazolin-2-yl)-ethyl]-amide] | – | 8.4e-10 | 1.8e-09 | –
COc1ccc(C(=O)C2CCN(C(=O)N(C)CCc3nc4ccccc4c(=O)[nH]3)CC2)cc1 [Compound C30, 4-(4-Methoxy-benzoyl)-piperidine-1-carboxylic acid methyl-[2-(4-oxo-3,4-dihydro-quinazolin-2-yl)-ethyl]-amide] | – | 5.7e-10 | 6.2e-10 | –
CC(C)(CC(=O)N1CCC(C(=O)c2cccc(C(=O)O)c2)CC1)Cc1nc2ccccc2c(=O)[nH]1 [Compound C35, 3-{1-[3,3-Dimethyl-4-(4-oxo-3,4-dihydro-quinazolin-2-yl)-butyryl]-piperidine-4-carbonyl}-benzoic Acid] | 5.5e-06 | – | – | –
Cc1cccc2c(=O)[nH]c(CC(C)(C)CC(=O)N3CCC(C(=O)c4cccc(C(=O)O)c4)CC3)nc12 [Compound C37, 3-{1-[3,3-Dimethyl-4-(8-methyl-4-oxo-3,4-dihydro-quinazolin-2-yl)-butyryl]-piperidine-4-carbonyl}-benzoic Acid] | 4.8e-07 | – | – | –
COC(=O)c1cccc(C(=O)C2CCN(C(=O)C[C@H](C)Cc3nc4c(C)cccc4c(=O)[nH]3)CC2)c1 [Compound C42, 3-{1-[(R)-3-Methyl-4-(8-methyl-4-oxo-3,4-dihydro-quinazolin-2-yl)-butyryl]-piperidine-4-carbonyl}-benzoic Acid Methyl Ester] | 2.5e-08 | – | – | –
COC(=O)c1cccc(C(=O)C2CCN(C(=O)C[C@@H](C)Cc3nc4c(C)cccc4c(=O)[nH]3)CC2)c1 [Compound C43, 3-{1-[(S)-3-Methyl-4-(8-methyl-4-oxo-3,4-dihydro-quinazolin-2-yl)-butyryl]-piperidine-4-carbonyl}-benzoic Acid Methyl Ester] | 4.7e-10 | – | – | –
Cc1cccc2c(=O)[nH]c(C[C@@H](C)CC(=O)N3CCC(C(=O)c4cccc(C(=O)O)c4)CC3)nc12 [Compound C44, 3-{1-[(R)-3-Methyl-4-(8-methyl-4-oxo-3,4-dihydro-quinazolin-2-yl)-butyryl]-piperidine-4-carbonyl}-benzoic Acid] | 5.3e-06 | – | – | –
Cc1cccc2c(=O)[nH]c(C[C@H](C)CC(=O)N3CCC(C(=O)c4cccc(C(=O)O)c4)CC3)nc12 [Compound C45, 3-{1-[(S)-3-Methyl-4-(8-methyl-4-oxo-3,4-dihydro-quinazolin-2-yl)-butyryl]-piperidine-4-carbonyl}-benzoic acid] | 8.9e-08 | – | – | –
